Measurements as given in article PMC6979384, “Characterization of the plant homeodomain (PHD) reader family for their histone tail interactions” (Epigenetics & Chromatin, 2020).

Assays:
Assay in all cases: Histone peptide microarray
Type in all cases: binding, human
Conditions in all cases: sheet "Array Heatmap"; GST-tagged reader; histone peptide array, total n = 4
[1] = test system: AIRE (PP)
Procedure, shortened: (§1)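 Readout is array binding signal, reported as the mean and standard deviation over four replicates. Each purified GST-fused PHD domain was incubated at 0.5 μM with a library of 293 modified histone peptides.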

[2] = test system: BAZ2B
Procedure, shortened: as §1

[3] = test system: BPTF (PB)
Procedure, shortened: as §1

[4] = test system: CHD4 (PPCC)
Procedure, shortened: as §1

[5] = test system: CHD5 (PCC)
Procedure, shortened: as §1

[6] = test system: CHD5 (PPCC)
Procedure, shortened: as §1

[7] = test system: DIDO1
Procedure, shortened: as §1

[8] = test system: DPF2 (PPC2W2)
Procedure, shortened: as §1

[9] = test system: ING1
Procedure, shortened: as §1

[10] = test system: ING2
Procedure, shortened: as §1

[11] = test system: ING3
Procedure, shortened: as §1

[12] = test system: ING4
Procedure, shortened: as §1

[13] = test system: ING5
Procedure, shortened: as §1

[14] = test system: KDM4C (TTP)
Procedure, shortened: as §1

[15] = test system: KDM5A (1)
Procedure, shortened: as §1

[16] = test system: KDM5A (3)
Procedure, shortened: as §1

[17] = test system: KDM5B (1)
Procedure, shortened: as §1

[18] = test system: KDM5B (3)
Procedure, shortened: as §1

[19] = test system: KDM7A
Procedure, shortened: as §1

[20] = test system: MLL5
Procedure, shortened: as §1

[21] = test system: MORC3 (CW)
Procedure, shortened: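 Each reader, produced as a GST fusion and purified, was tested at 0.5 μM on synthetic histone peptides (293 in total) carrying single or combinatorial marks. Intensities averaged over four replicates.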

[22] = test system: PHF13
Procedure, shortened: as §1

[23] = test system: PHF21A
Procedure, shortened: as §1

[24] = test system: PHF23
Procedure, shortened: as §1

[25] = test system: PHF2
Procedure, shortened: as §1

[26] = test system: PHF8
Procedure, shortened: as §1

[27] = test system: PHRF1 (RP)
Procedure, shortened: as §1

[28] = test system: RAG2
Procedure, shortened: as §1

[29] = test system: SP140L
Procedure, shortened: as §1

[30] = test system: TAF3
Procedure, shortened: as §1

[31] = test system: TRIM66 (PB)
Procedure, shortened: as §1

H3T6p: H3 1-20 [Peptide H3T6p]
Array Heatmap signal, AIRE (PP) [1]: 0.5235
Array Heatmap signal, BAZ2B [2]: 0.5538
Array Heatmap signal, BPTF (PB) [3]: 0.4149
Array Heatmap signal, CHD4 (PPCC) [4]: 0.6596
Array Heatmap signal, CHD5 (PCC) [5]: 0.9074
Array Heatmap signal, CHD5 (PPCC) [6]: 0.6595
Array Heatmap signal, DIDO1 [7]: 0.87
Array Heatmap signal, DPF2 (PPC2W2) [8]: 0.8292
Array Heatmap signal, ING1 [9]: 0.6423
Array Heatmap signal, ING2 [10]: 0.6272
Array Heatmap signal, ING3 [11]: 0.5766
Array Heatmap signal, ING4 [12]: 0.5347
Array Heatmap signal, ING5 [13]: 0.4298
Array Heatmap signal, KDM4C (TTP) [14]: 0.5715
Array Heatmap signal, KDM5A (1) [15]: 0.5432
Array Heatmap signal, KDM5A (3) [16]: 0.5721
Array Heatmap signal, KDM5B (1) [17]: 0.7098
Array Heatmap signal, KDM5B (3) [18]: 0.5406
Array Heatmap signal, KDM7A [19]: 0.3941
Array Heatmap signal, MLL5 [20]: 0.6202
Array Heatmap signal, MORC3 (CW) [21]: 0.5106
Array Heatmap signal, PHF13 [22]: 0.7024
Array Heatmap signal, PHF21A [23]: 0.4969
Array Heatmap signal, PHF23 [24]: 0.6281
Array Heatmap signal, PHF2 [25]: 0.6372
Array Heatmap signal, PHF8 [26]: 0.4328
Array Heatmap signal, PHRF1 (RP) [27]: 0.6983
Array Heatmap signal, RAG2 [28]: 0.3038
Array Heatmap signal, SP140L [29]: 0.3962
Array Heatmap signal, TAF3 [30]: 0.311
Array Heatmap signal, TRIM66 (PB) [31]: 0.7122
